Assay [1] concerns the target T1, CDK7/cyclin H (Homo sapiens, UniProt P50613).
T1 construct: His6 (N); made in house; host or cells: Sf9 insect cells (baculovirus)
Description: CDK7/cyclin H inhibition constant. Type of assay: biochemical. The protocol:
(§1) CDK4/cyclin D1, CDK1/cyclin B, CDK2/cyclin E, CDK2/cyclin A, CDK9/cyclin T1 and CDK7/cyclin H, all with a His6 tag on the N-terminus, were expressed in Sf9 insect cells using an appropriate baculovirus construct. Sf9 culture (1.6×10^6 cells/mL) was infected (MOI of 3) for two days. The cells were harvested by low speed centrifugation and the protein was purified from the insect cell pellet by metal affinity chromatography. In short: the insect cell pellet was lysed in Buffer A (10 mM Tris-HCl pH 8.0, 150 mM NaCl, 0.02% NP-40, 5 mM β-mercaptoethanol, 20 mM NaF, 1 mM Na3VO4, and Sigma Protease Inhibitor Cocktail) by sonication. The soluble fraction was cleared by centrifugation and loaded onto Ni-NTA-Agarose (Qiagen). Non-bound protein was washed off with 300 mM NaCl, 5-15 mM imidazole in buffer A and the bound protein was eluted with buffer A supplemented with 250 mM imidazole. The purified proteins were extensively dialyzed against storage buffer (20 mM HEPES pH 7.4, 50 mM NaCl, 2 mM DTT, 1 mM EDTA, 1 mM EGTA, 0.02% NP-40, 10% v/v glycerol) and stored at −70° C.
Intrinsic inhibition constants (Ki) for example compound XIV against a number of Ser/Thr kinases were determined and are summarized in Table 3.

Assay [2] addresses T2, MAPK2/ERK2 (Homo sapiens, UniProt P28482).
T2 construct: Dundee University (panel)
Description: Protein kinase panel selectivity screen, MAPK2/ERK2. It is filed as biochemical. The settings on record: 1 μM compound; [ATP] 50 μM. The method, then:
(§2) The names of the 29 kinases comprising the selectivity screen, as well as the ATP concentrations used in each kinase case, are given in Table 5. The kinase assays were carried out as described previously.
(§3) Compound XIV at a concentration of 1 μM was screened in the 29-kinase panel (Dundee University) and the results are shown bellow in Table 6.

Assay [3] addresses T3, SAPK3/p38g (Homo sapiens, UniProt P53778).
T3 construct: Dundee University (panel)
Description: Protein kinase panel selectivity screen, SAPK3/p38g. Conditions: 1 μM compound; [ATP] 5 μM. It is filed as biochemical. The method, then:
as §2, §3

The target of assay [4] is T4, CDK4/cyclin D1 (Homo sapiens, UniProt P11802).
T4 construct: His6 (N); made in house; host or cells: CDK4: Sf9 insect cells (baculovirus); Cyclin D1: E. coli, Sf9
T4 sequence (P11802 whole entry): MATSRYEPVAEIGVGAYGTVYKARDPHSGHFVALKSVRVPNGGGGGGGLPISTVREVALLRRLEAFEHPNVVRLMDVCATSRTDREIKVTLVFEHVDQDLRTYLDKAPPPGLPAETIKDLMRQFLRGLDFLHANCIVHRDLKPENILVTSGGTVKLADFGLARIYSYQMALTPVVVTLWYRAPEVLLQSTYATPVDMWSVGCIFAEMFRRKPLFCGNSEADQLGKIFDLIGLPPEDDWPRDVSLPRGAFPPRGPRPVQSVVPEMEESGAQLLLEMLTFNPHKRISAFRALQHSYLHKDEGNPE
T4 sequence (P24385 whole entry partner): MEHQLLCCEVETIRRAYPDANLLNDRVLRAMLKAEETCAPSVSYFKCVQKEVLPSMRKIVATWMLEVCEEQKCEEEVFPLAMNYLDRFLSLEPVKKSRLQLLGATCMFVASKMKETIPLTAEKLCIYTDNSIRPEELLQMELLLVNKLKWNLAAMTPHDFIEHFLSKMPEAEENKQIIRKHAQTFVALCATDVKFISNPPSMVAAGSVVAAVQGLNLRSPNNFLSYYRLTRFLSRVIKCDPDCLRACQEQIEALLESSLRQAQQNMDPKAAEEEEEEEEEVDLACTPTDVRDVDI
Description: CDK/cyclin kinase assay, CDK4/cyclin D1. It is filed as biochemical. The protocol:
as §1
Compounds were investigated for their CDK2/cyclin E, CDK2/cyclin A, CDK1/cyclin B, and CDK4/cyclin D1 inhibitory activity. His6-tagged recombinant human cyclin-dependent kinases CDK1/cyclin B1, CDK2/cyclin E, CDK2/cyclin A, and CDK4 were expressed in sf9 insect cells using a baculovirus expression system. Recombinant cyclin D1 was expressed in E. coli. Proteins were purified by metal chelate affinity chromatography to greater than 90% homogeneity. Kinase assays were performed in 96-well plates using recombinant CDK/cyclins. Assays were performed in assay buffer (25 mM β-glycerophosphate, 20 mM MOPS, 5 mM EGTA, 1 mM DTT, 1 mM […], pH 7.4), into which were added 2-4 μg of active enzyme with appropriate substrates (purified histone H1 for CDK1 and CDK2, recombinant GST-retinoblastoma protein (residues 773-928) for CDK4). The reaction was initiated by addition of Mg/ATP mix (15 mM MgCl2+100 μM ATP with 30-50 kBq per well of [γ-^32P]-ATP) and mixtures incubated for 10-45 min, as required, at 30° C. Reactions were stopped on ice, followed by filtration through p81 or GF/C filterplates (for CDK4) (Whatman Polyfiltronics, Kent, UK). After washing 3 times with 75 mM aq orthophosphoric acid, plates were dried, scintillant added and incorporated radioactivity measured in a scintillation counter (TopCount, Packard Instruments, Pangbourne, Berks, UK). Compounds for kinase assays were made up as 10 mM stocks in DMSO and diluted into 10% DMSO in assay buffer. Data was analysed using curve-fitting software (GraphPad Prism version 3.00 for Windows, GraphPad Software, San Diego Calif. USA) to determine IC50 values (concentration of test compound which inhibits kinase activity by 50%).

Assay [5] addresses T5, SAPK2a/p38 (Homo sapiens, UniProt Q16539).
T5 construct: Dundee University (panel)
Description: Protein kinase panel selectivity screen, SAPK2a/p38. Type of assay: biochemical. Conditions: 1 μM compound; [ATP] 50 μM. The method, then:
as §2, §3

Assay [6] has as its target T6, PRAK (Homo sapiens, UniProt Q8IW41).
T6 construct: Dundee University (panel)
Description: Protein kinase panel selectivity screen, PRAK. It is filed as biochemical. Conditions: 1 μM compound; [ATP] 20 μM. The method, then:
as §2, §3

The target in assay [7] is T7, JNK/SAPK1c (Homo sapiens, UniProt P45983).
T7 construct: Dundee University (panel)
T7 sequence (P45983 whole entry): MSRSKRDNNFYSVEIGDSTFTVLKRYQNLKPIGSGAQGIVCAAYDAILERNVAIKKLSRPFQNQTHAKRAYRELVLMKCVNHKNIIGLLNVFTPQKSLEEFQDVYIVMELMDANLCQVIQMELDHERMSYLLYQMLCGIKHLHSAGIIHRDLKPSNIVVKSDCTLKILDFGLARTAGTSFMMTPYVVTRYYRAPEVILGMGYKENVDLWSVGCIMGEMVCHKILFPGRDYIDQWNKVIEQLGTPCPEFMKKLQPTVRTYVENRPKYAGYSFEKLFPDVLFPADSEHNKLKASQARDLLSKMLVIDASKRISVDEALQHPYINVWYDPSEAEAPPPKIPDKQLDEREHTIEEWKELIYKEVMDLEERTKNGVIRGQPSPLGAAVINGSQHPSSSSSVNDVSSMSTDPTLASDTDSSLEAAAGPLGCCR
Description: Protein kinase panel selectivity screen, JNK/SAPK1c. Type of assay: biochemical. Conditions: 1 μM compound. The protocol: as §2, §3

Assay [8] has as its system glycogen synthase activity in 3T3 mouse adipocytes. Description: Glycogen synthase (GS) assay in 3T3 mouse adipocytes. It is filed as cell-based. The protocol:
Mouse pre-adipocytes 3T3-F442A were seeded at 9×10^5 cells per 10 cm dish in DMEM 10% FCS, containing penicillin/streptomycin. When 90% confluent, the same medium was supplemented with 1 μg/mL insulin. After 3-5 days (when most cells were differentiated) insulin was removed and 4 days later the cells were ready to use.
Cells on 10 cm dishes (Human Embryonic Kidney (HEK) 293 cells, L6 rat myocytes, or 3T3 mouse adipocytes) were treated with different concentrations of GSK3-inhibitors or DMSO vehicle for 90 min. Incubation medium was removed and cells were washed with ice-cold phosphate-buffered saline (PBS) prior to lysis on ice in 50 mM HEPES, pH 7.5, 10 mM EDTA, 100 mM NaF, 5 mM DTT, protease inhibitor cocktail (Sigma). After a freeze/thaw cycle the samples are sonicated for 10 sec and centrifuged at 15,000 g for 10 min at 4° C. Lysate supernatants were snap-frozen on liquid nitrogen and stored at −80° C. Lysates were assayed for glycogen synthase activity in buffer (50 mM Tris-HCl, pH 7.8, 20 mM EDTA, 25 mM NaF, 5 mM DTT, 1% glycogen, 0.3 mM UDP-glucose and 0.06 μCi of [^14C]-UDP-glucose in the presence of 0.1 or 10 mM glucose-6-phosphate. The reaction was carried out for 30 min at 30° C. 70 μL of the reaction mixture (total volume 90 μL) were transferred to a GFC 96-well filter plate (bottom sealed with foil), containing 140 μL 96% ethanol. The GFC plate was incubated for 1 h on ice and than washed with 66% ethanol. To each well 100 μL scintillant liquid was added and the radioactivity of the samples was measured using a scintillation counter (Topcount, HP). Data are expressed as -fold increase in glycogen synthase activity ratios over those of control samples.

T1 sequence (P50613 whole entry, species assumed): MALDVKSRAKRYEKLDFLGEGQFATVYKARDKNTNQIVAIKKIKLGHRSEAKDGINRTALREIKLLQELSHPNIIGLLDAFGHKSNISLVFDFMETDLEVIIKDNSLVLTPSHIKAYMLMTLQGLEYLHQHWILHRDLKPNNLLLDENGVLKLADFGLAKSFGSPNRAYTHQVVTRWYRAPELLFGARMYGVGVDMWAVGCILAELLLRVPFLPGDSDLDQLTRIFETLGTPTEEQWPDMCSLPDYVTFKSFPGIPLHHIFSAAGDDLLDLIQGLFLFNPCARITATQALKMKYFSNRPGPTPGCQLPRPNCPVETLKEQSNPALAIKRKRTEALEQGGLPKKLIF
T1 sequence (P51946 whole entry partner, species assumed): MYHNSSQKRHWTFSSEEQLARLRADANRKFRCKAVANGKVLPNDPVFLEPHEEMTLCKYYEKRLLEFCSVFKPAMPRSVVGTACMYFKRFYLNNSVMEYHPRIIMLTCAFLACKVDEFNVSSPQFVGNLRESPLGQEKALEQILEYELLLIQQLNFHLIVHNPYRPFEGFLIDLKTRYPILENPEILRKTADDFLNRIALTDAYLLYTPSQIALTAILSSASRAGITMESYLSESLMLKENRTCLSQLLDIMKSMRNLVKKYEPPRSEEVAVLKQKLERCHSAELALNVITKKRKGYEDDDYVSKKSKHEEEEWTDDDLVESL
T3 sequence (P53778 whole entry): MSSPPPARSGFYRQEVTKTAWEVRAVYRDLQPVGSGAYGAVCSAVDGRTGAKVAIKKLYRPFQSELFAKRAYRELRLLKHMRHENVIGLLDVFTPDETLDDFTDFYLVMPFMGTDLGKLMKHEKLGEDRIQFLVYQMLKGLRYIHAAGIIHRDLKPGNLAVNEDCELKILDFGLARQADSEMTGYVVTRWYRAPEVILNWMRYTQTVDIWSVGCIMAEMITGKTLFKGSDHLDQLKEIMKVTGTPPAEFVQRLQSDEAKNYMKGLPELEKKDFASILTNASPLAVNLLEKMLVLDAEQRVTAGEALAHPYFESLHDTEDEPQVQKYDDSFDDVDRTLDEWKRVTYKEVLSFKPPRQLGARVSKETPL
T5 sequence (Q16539 whole entry): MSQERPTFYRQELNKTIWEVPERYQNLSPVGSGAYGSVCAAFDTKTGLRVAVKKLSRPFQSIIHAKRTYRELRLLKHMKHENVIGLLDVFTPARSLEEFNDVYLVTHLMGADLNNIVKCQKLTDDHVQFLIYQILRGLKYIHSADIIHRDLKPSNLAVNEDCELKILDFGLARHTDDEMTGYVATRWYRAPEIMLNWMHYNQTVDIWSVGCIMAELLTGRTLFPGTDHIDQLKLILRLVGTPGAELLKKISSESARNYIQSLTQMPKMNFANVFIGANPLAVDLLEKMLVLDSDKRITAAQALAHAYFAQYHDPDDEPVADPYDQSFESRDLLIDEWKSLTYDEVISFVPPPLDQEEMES
T2 sequence (P28482 whole entry): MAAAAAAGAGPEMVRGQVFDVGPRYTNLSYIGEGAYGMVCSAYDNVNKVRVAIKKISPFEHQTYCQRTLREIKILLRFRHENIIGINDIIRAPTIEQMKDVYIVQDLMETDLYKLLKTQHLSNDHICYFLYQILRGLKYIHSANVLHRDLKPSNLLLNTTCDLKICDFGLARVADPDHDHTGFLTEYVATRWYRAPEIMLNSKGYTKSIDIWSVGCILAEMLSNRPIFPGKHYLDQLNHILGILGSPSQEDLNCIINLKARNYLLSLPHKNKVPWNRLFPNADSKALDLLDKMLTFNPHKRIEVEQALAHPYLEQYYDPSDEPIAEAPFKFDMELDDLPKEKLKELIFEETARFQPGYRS
T6 sequence (Q8IW41 whole entry, species assumed): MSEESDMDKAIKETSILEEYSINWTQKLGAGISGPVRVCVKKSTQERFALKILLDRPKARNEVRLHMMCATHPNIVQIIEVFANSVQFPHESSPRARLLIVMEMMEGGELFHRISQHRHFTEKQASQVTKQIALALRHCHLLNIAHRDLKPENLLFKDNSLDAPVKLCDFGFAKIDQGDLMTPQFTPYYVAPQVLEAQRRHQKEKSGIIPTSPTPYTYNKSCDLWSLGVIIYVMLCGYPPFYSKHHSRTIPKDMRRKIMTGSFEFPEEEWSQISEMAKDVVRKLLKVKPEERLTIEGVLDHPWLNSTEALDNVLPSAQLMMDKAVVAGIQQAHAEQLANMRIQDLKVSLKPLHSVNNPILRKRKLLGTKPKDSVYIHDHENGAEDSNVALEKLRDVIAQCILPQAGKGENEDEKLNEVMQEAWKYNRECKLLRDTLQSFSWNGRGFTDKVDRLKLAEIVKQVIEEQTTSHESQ

The Ki is the dissociation constant of the complex between target and ligand, obtained from inhibition or displacement. Usually inhibition stands for the change of the read-out against control, counted positive when it falls. Higher therefore signals a response far below the control. The term EC50 denotes the concentration needed to bring the measured effect to its halfway point. What is called fold induction is the ratio of treated to control signal. High values mean a strong induction, low ones a weak induction. For the compound `Clc1ccc(Nc2nccc(-c3nccs3)n2)cn1` [Compound XIV, (6-Chloro-pyridin-3-yl)-(4-thiazol-2-yl-pyrimidin-2-yl)-amine], the Ki in assay [1] was greater than 50 µM; in assay [4] it was greater than 100 µM. Further, the “Fold selectivity for GSK3 over CDK7/cyclin H” value in assay [1] (from Ki) is listed as >3,125 fold. The activity at 1 µM was found to be 84 ± 8% in assay [2]; 88 ± 3% in assay [3]; 84 ± 7% in assay [5]; 83 ± 3% in assay [6]; 56 ± 4% in assay [7] ([ATP] 20 μM). In assay [4] (from Ki), the “Fold selectivity for GSK3 over CDK4/cyclin D1” value was >6,250 fold. Further, in assay [4] (read-out: Kinase inhibition IC50 CDK4/D1), the IC50 was greater than 100 µM. The compound further had an inhibition at 1 µM in assay [7] of roughly 40%. Moreover, the “Activation of GS relative to that induced by 40 mM LiCl” value in assay [8] (3T3 adipocytes, 5 μM) is “approximately 2 fold”. Also, the EC50 in assay [8] (Mus musculus, Adipocyte, 3T3 adipocytes, from dose-response curves, read-out: EC50 activation of glycogen synthase) came out at 5 ± 2.3 µM. The fold induction at 0.2 µM in assay [8] (Mus musculus, NIH3T3, 3T3 cells, 0.2 μM) worked out at 1.1. Further, the fold induction at 1 µM in assay [8] (Mus musculus, NIH3T3, 3T3 cells, 1 μM) was determined as 2.5. Moreover, in assay [8] (Mus musculus, NIH3T3, 3T3 cells, 5 μM), the fold induction at 5 µM was found to be 3.7. In assay [8] (Mus musculus, NIH3T3, 3T3 cells, 10 μM), this compound registered a fold induction at 10 µM of 4.8. For the same compound, the “Activity of glycogen synthase (fractional velocity)” value in assay [8] (mouse adipocyte cells, ratio of activity at 0.1 and 10 mM glucose-6-phosphate) is listed as “increased the activity of glycogen synthase”.

The record behind these values is patent US20080318954A1, “Compounds” (Cyclacel Limited, priority 2004, published 2008).
